Test results taken from ChEMBL document CHEMBL1151673, “Vasculyne, a new cytotoxic acetylenic alcohol from the marine sponge Cribrochalina vasculum” (1996).
Converted amounts (≈) assume the structure as drawn.

How the values were obtained:
[1] = Cytotoxicity against human melanoma cells; type: functional; details: Melanoma cell
[2] = Cytotoxicity against human colon cancer cells; type: functional; details: Cancer cell lines
[3] = read-out: LC50 (the source's name)

## C#C[C@H](O)/C=C\CCCCCCCCCCCCCCCCCCCCCCCC/C=C/CCCCCCC/C=C/[C@@H](O)C#C [VASCULYNE]
[1]
  GI50: 0.2 µg/mL (≈ 0.321 µM)
  TGI: 0.7 µg/mL (≈ 1.12 µM)
[1]; [3]
  CC50: 6.7 µg/mL (≈ 10.8 µM)
[2]
  GI50: 0.2 µg/mL (≈ 0.321 µM)
  TGI: 0.7 µg/mL (≈ 1.12 µM)
[2]; [3]
  CC50: 6.7 µg/mL (≈ 10.8 µM)
